Columns and labels:
osteocalcin mRNA = assay: Northern blotting for osteocalcin mRNA in M2-10B4 cells; type: cell-based, mouse; conditions: for induction of osteocalcin gene expression by individual oxysterols: 0.5 to less than 10 μM, as many as 14 days (data not shown)
Procedure: RNA isolation and Northern blot analysis—Following treatment of cells under appropriate experimental conditions, total RNA was isolated using the RNA isolation kit from Stratagene (La Jolla, Calif., U.S.A.). Total RNA ([…]) was run on a 1% agarose/formaldehyde gel and transferred to Duralon-UV membranes (Strategene, CA, U.S.A.) and cross-linked with UV light. The membranes were hybridized overnight at 60 degree C. with ^32P-labeled mouse osteocalcin cDNA probe, mouse lipoprotein lipase (LPL), mouse adipocyte protein 2 (aP^2) PCR-generated probes, human 28S or 18S rRNA probes obtained from Geneka Biotechnology (Montreal, Quebec, Canada) and Maxim Biotech (San Francisco, Calif., U.S.A.), respectively. The PCR products were generated using primer sets synthesized by Invitrogen (Carlsbad, Calif., U.S.A.) with the following specifications: mouse aP2 gene (accession no. M13261); sense (75-95) 5′-[…]-3′, antisense (362-383) 5′-[…]-3′, generating a PCR product of 309 base pairs. Mouse LPL (accession no. XM—134193); sense (1038-1058) 5′-[…]-3′, antisense (1816-1836) 5′-[…]-3′, generating a PCR product of 799 base pairs. The PCR products were gel-purified and sequenced by the UCLA sequencing core, showing the highest similarity to their respective GenBank entries. Following hybridization, the blots were washed twice at room temperature with 2×SSC+0.1% SDS, and then twice at 60 degree C. with 0.5×SSC+0.1% SDS, and exposed to X-ray film. The extent of gene induction was determined by densitometry.
After 4 and 8 days, total RNA from duplicate samples was isolated and analyzed for osteocalcin (Osc) and 28S rRNA expression by Northern blotting as described. FIG. 3E is a radiogram of Northern blotting for osteocalcin mRNA in M2 cells exposed to a control or combination of oxysterols for 4 or 8 days. FIG. 3F is a bar graph depicting the relative demsometric units of osteocalcin mRNA in M2 cells exposed to a control or combination of oxysterols for 4 -or 8 days. Data from densitometric analysis of the Northern blot is shown in (F) as the average of duplicate samples, normalized to 28S rRNA.
Next, a combination of 22R and 20S oxysterols (RS, 2.5 μM each) were added in the presence or absence of SC as indicated. After 3 days, ALP activity was measured as described earlier. […] (B) M2 cells were treated as described in (A) and after 10 days matrix mineralization in cultures was quantified by a ^45Ca incorporation assay as described earlier. […] (C) M2 cells were pretreated with 20 μM SC for 4 hours, followed by the addition of RS in the presence or absence of SC as described above. After 8 days, total RNA was isolated and analyzed for osteocalcin (Osc) and […] expression by Northern blotting as previously described. Data from densitometric analysis of the Northern blot is shown in (D) as the average of duplicate samples, normalized to 18S rRNA. (E) M2 cells at confluence were pretreated for 2 hours with control vehicle (C), or PLA2 inhibitors ACA (25 μM) and AACOCF3 (AAC, 20 μM), in osteogenic medium. Next, a combination of 22R and 20S oxysterols (RS, 2.5 μM) was added in the presence or absence of the inhibitors as indicated. After 3 days, ALP activity was measured as previously described. […] (F) M2 cells were treated as described in (E). After 10 days, matrix mineralization in cultures was quantified using a ^45Ca incorporation assay as previously described. Results from a representative of three experiments are shown, reported as the mean of quadruplicate determinations ±SD, normalized to protein concentration (p<0.01 for RS vs. RS+ACA and RS+AAC).
ALP activity was measured after 2 days, as described. […] (B) M2 cells were treated as described in (A). After 10 days, matrix mineralization in cultures was quantified using a ^45Ca incorporation assay as described. […] (C) M2 cells were treated under similar conditions as those described above. […]

M2 cells = assay: Troglitazone-induced adipogenesis in M2 cells (oil Red O staining, adipocyte count); type: cell-based, mouse; conditions: Tro 10 μM, oxysterol 10 μM, 10 days, alone or in combination
Procedure: Von Kossa and oil red O staining—Matrix mineralization in cell monolayers was detected by silver nitrate staining as previously described. Oil red O staining for detection of adipocytes was performed as previously described.
Test 1: M2 cells at 90% confluence were treated with vehicle (C), PPAR-γ activator, troglitazone 10 μM (Tro), alone or in combination with 10 μM oxysterols 20S-, 22R-, or 25S-hydroxycholesterol. After 8 days, adipocytes were identified by oil Red 0 staining and quantified by counting under a phase contrast microscope. FIG. 6A is a bar graph depicting the effect of oxysterols on reducing adipogenesis of MSC.
Test 2: (A) M2 cells at confluence were treated in RPMI containing 10% FBS with control vehicle or 10 μM troglitazone (Tro) in the absence or presence of 10 μM 20S or 22S-hydroxycholesterol. After 10 days, adipocytes were visualized by oil Red O staining and quantified by light microscopy, shown in (B). […] (C) M2 cells were treated at confluence with 10 μM Tro, alone or in combination with 10 μM 20S oxysterol. After 10 days, total RNA was isolated and analyzed for lipoprotein lipase (LPL), adipocyte P2 gene (aP2) or 18S rRNA expression by Northern blotting as described (Ref). Data from densitometric analysis of the Northern blot is shown in (D) as the average of duplicate samples, normalized to 18S rRNA.

SMILES | induction of osteocalcin gene expression by individual oxysterols (osteocalcin mRNA) | osteocalcin mRNA expression (osteocalcin mRNA; doses of 5-15 μM) | effect on troglitazone-induced adipogenesis (M2 cells)
CC(C)CCC[C@](C)(O)[C@H]1CC[C@H]2[C@@H]3CC=C4C[C@@H](O)CC[C@]4(C)[C@H]3CC[C@@]21C [20S-hydroxycholesterol] | unable to induce | induction | inhibited adipogenesis
CC(C)CC[C@@H](O)[C@@H](C)[C@H]1CC[C@H]2[C@@H]3CC=C4C[C@@H](O)CC[C@]4(C)[C@H]3CC[C@]12C [22R-hydroxycholesterol] | unable to induce | – | inhibited adipogenesis
CC(C)CC[C@H](O)[C@@H](C)[C@H]1CC[C@H]2[C@@H]3CC=C4C[C@@H](O)CC[C@]4(C)[C@H]3CC[C@]12C [22S-hydroxycholesterol] | unable to induce | – | inhibited adipogenesis

— patent publication US20090220562A1, “Osteogenic and anti-adipogenic oxysterols” (priority 2005, published 2009)
